# Values quoted from earlier work in publication PMC12530853 (RSC Advances, 2025).
# Test system: Candida albicans
# Conditions: lack of antifungal activity; cited from earlier work
smiles,measurement,value
O=C(NC[C@@H](c1ccccc1)n1ccnc1)c1ccc(-c2ccc(Cl)cc2)cc1 [VID400],MIC against Candida albicans,> 128 µg/mL
